Drawing on PubChem BioAssay (NCI), this text covers TGI for 8 compounds.

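Assay format: 96-well plates, 48-hour exposure. The concentration for full growth arrest is given as TGI.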 Where only a bound is given, the exact number is not on record here.

Common to all, as to test: NCI-60 cell line screen, 48 h
In test [1] the test system is OVCAR-5 ovarian.
The test system of test [2] is HCT-116 colon.
The test system of test [3] is M14 melanoma.
Test [4] has as its system HOP-62 NSCLC.
Test [5] relates to UACC-257 melanoma.
The subject of test [6] is OVCAR-3 ovarian.
Test [7] relates to HOP-92 NSCLC.
Test [8] deals with LOX IMVI melanoma.
Test [9] deals with DU-145 prostate.
In test [10] the test system is MDA-MB-231 breast.
The test system of test [11] is RXF 393 renal.
Test [12] relates to MALME-3M melanoma.
Test [13] deals with RPMI-8226 leukemia.
The test system of test [14] is BT-549 breast.
Test [15] deals with TK-10 renal.
In test [16] the test system is SK-MEL-5 melanoma.
Test [17] deals with SK-MEL-28 melanoma.
The subject of test [18] is U251 CNS.
The subject of test [19] is MCF7 breast.
Test [20] has as its system SF-539 CNS.

In the case of `O=c1c2ccccc2nc(Nc2cccc(Cl)c2)n1/N=C/C=C/c1ccccc1`, the TGI in test [1], in [2], in test [3], in [4], in [5] and in [6] was over 100 µM throughout. Moreover, the TGI in test [7], in [8], in test [9], in test [10], in test [11] and in test [12] was over 100 µM throughout. The TGI in test [13], in test [14], in [15], in test [16], in test [17] and in test [18] was over 100 µM each time. For the same compound, the figures for the TGI in test [19] and in [20] were 74.7 µM and over 100 µM, respectively.

Turning to `CC(=O)OC/C=C(/C=C/CNC1CCCCC1)OC(C)=O`, the TGI in [1] came to 29.9 µM; in test [2], 30.5 µM; in [3], 21.2 µM; in [4], 31.1 µM; in test [5], 29.4 µM; in [6], 37.7 µM. Also, the TGI in test [7] came out at 25.5 µM; in [8] it was 37.5 µM; in [9], 31.6 µM; in test [10], 27.9 µM; in [11], 32.5 µM; in [12], 32.9 µM. The TGI in [13] is 25.5 µM; in test [14], 31.3 µM; in test [15] it was 30.6 µM; in test [16] it was 33.5 µM; in [17], 30.9 µM; in [18] it was 32.9 µM. In addition, the TGI in [19] turned out to be 66.9 µM; in test [20] it was 24.2 µM.

Regarding `Cn1c([O-])nc(-n2cc[n+](C)c2)cc1=O`, the TGI in test [1], in [2], in test [3], in test [4], in test [5] and in test [6] was over 100 µM in each case. Besides, the TGI in [7], in test [8], in test [9], in test [10], in test [11] and in test [12] was over 100 µM each time. Besides, the TGI in test [13], in [14], in test [15], in test [16], in [17] and in test [18] was over 100 µM throughout. Besides, the TGI in test [19] and in test [20] was over 100 µM throughout.

With `O=C1CSC(c2cccs2)N1c1nc2cc3sc(N4C(=O)CSC4c4cccs4)nc3cc2s1` (stereo not given), the TGI in test [1], in test [2], in test [3], in test [4], in [5] and in test [6] was over 50 µM throughout. Moreover, the TGI in test [7], in [8], in test [9], in [10], in test [11] and in test [12] was over 50 µM throughout. In addition, the TGI in test [13], in test [14], in [15], in test [16], in [17] and in [18] was over 50 µM in each case. The TGI in test [19] is over 50 µM; in test [20] it was 3.6 µM.

Regarding `CC1(CNCc2ccccc2)CC(CCc2ccccc2)N(C(=O)c2ccc([N+](=O)[O-])cc2)C1Cc1ccc(O)cc1` (stereo not given), the TGI is 34 µM in [1]; 23.1 µM in test [2]; 28 µM in test [3]; 31.1 µM in test [4]; 27 µM in test [5]; 24.6 µM in test [6]. In addition, the TGI turned out to be 9.88 µM in test [7]; 26.2 µM in test [8]; 28.5 µM in test [9]; 24.4 µM in test [10]; 17.4 µM in test [11]; 33.6 µM in [12]. In addition, the TGI is over 100 µM in [13]; 31.3 µM in test [14]; 30.9 µM in test [15]; 17.3 µM in [16]; over 100 µM in test [17]; 26.2 µM in test [18]. Moreover, the TGI in test [19] came out at 19.2 µM; in test [20], 35.2 µM.

As to `Brc1ccc2c(-c3csc(-c4c[nH]c5cc(Br)ccc45)n3)c[nH]c2c1`, the TGI in [1] is over 90.2 µM; in test [2], 32.3 µM; in test [3] it was over 56.5 µM; in test [4], over 100 µM; in test [5], over 100 µM; in test [6], over 100 µM. The TGI in test [7] was over 100 µM; in [8] it was over 57.1 µM; in test [9], 47.3 µM; in [10], over 70.6 µM; in test [11], 77.1 µM; in test [12], over 100 µM. Moreover, the TGI was over 100 µM in test [13]; over 100 µM in test [14]; over 100 µM in test [15]; over 100 µM in test [16]; over 100 µM in test [17]; 32.1 µM in test [18]. For the same compound, the TGI in test [19] was over 100 µM; in [20], 63.2 µM.

Take `COCc1nc2c(OC)cc(-c3nc4ccc(N5CCN(C)CC5)cc4[nH]3)c(OC)c2[nH]1`: the TGI in test [1] is over 100 µM; in [2], over 100 µM; in test [3], 31.9 µM; in [4], over 100 µM; in [5], 34.6 µM; in test [6] it was 77.5 µM. The TGI was over 100 µM in [7]; 34.8 µM in [8]; over 100 µM in test [9]; over 100 µM in [10]; 51.9 µM in test [11]; 31.6 µM in test [12]. The TGI is over 100 µM in test [13]; over 100 µM in test [14]; over 100 µM in [15]; 53.2 µM in test [16]; over 100 µM in test [17]; over 100 µM in [18]. In addition, the TGI in test [19] was over 100 µM; in test [20], 44.6 µM.

Turning to `COc1cc(I)c2c3c1OC1C34CCN(C)C(C2)C4=CC(I)C1(OC)OC` (stereo not given), the TGI is 81.6 µM in test [1]; 60.6 µM in [2]; over 100 µM in test [3]; 46.3 µM in test [4]; 49.4 µM in test [5]; 59 µM in test [6]. Further, the TGI worked out at 45.6 µM in test [7]; 42.3 µM in test [8]; 47.5 µM in test [9]; 46.3 µM in [10]; 38.2 µM in test [11]; 47.1 µM in test [12]. The TGI came out at 49.7 µM in test [13]; 48.4 µM in test [14]; 51.1 µM in test [15]; 34 µM in test [16]; 47.5 µM in test [17]; 33.9 µM in test [18]. For the same compound, the figures for the TGI in [19] and in [20] were 64.3 µM and 40.1 µM, respectively.
